Reference: patent US20260116867A1, “PROTEOLYSIS TARGETING CHIMERAS FOR HUMAN PREGNANE X RECEPTOR AND FOR DEGRADATION OF GSPT1” (ST. JUDE CHILDREN'S RESEARCH HOSPITAL, priority 2022, published 2026)

What was measured:
Format in all cases: cell-based, human
[1] = test system: SNU—C4 3xFLAG-PXR KI cells; experiment: TMT-MS whole-proteome quantification in SNU—C4 3xFLAG-PXR KI cells; details: 5 μM, 12 h vs DMSO; 9,692 proteins detected
Protocol: The next day, 0.5% DMSO or 5 μM SJPYT-195 was added to triplicate dishes. After 12 h, the media were removed, cells were washed twice with ice cold PBS, 500 μL of 50 mM HEPES (pH 8.0) and 8 M urea was added to each dish, cells were scraped and transferred to 1.5 mL tubes, and the tubes were frozen on dry ice and stored at −80° C. Processing for TMT-MS was conducted according to a previously optimized protocol. To profile the whole proteome, the cell lysates (approximately 100 μg of protein per sample) were proteolyzed with Lys-C(Wako) at an enzyme-to-substrate ratio of 1:100 (w/w) for 3 h at room temperature. Samples were diluted with 50 mM HEPES (pH 8.5) to a final 2 M urea concentration. […]
Dried peptides were resuspended in 50 μL 100 mM HEPES (pH 8.5) and labeled with TMTpro 16plex Label Reagents [Thermo Fisher Scientific, 10 μg/μL in 100% ACN, 1:2 (w/w) ratio, room temperature for 1 h]. […] Fractions were dried in SpeedVac and resuspended in 5 μL 5% FA/1% trifluoroacetic acid immediately prior to mass spectrometry and quantitation analysis. […]
MS raw files were converted to mzXML files, and database searches were performed against Uniprot HUMAN protein database using our in-house developed JUMP pipeline. […] TMT-based quantification and statistical analysis were performed based on our previous method. […]

[2] = Cytotoxicity assay (CellTiter-Glo, 72 h); details: human, SNU-C4 3xFLAG-PXR KI cells; read-out: half maximal cytotoxic concentration (CC50)
Protocol: (§1) The indicated cells (2.5×10^3/well in 40 μL RPMI with 10% FBS) were plated in the 384-well plates, resulting in 0.5% DMSO and the indicated concentrations of chemicals. After 72 h compound treatment, the CellTiter-Glo Luminescent Cell Viability Assay (Promega) and an EnVision microplate reader were used to assess cytotoxicity. Wells containing DMSO alone or 10 μM staurosporine served as negative and positive controls, respectively. The percent cell viability for each well was calculated using equation 1: […]

[3] = test system: SNU—C4 3xFLAG-PXR KI cells; experiment: Cytotoxicity assay (CellTiter-Glo, 72 h); details: SNU—C4 3xFLAG-PXR KI cells
Protocol: as §1

PXR RNA = PXR RNA level in SNU—C4 3xFLAG-PXR KI cells
[4] = test system: SNU—C4 3xFLAG-PXR KI cell lines stably expressing HA-tagged GSPT1^G575N; experiment: Cytotoxicity assay in cells overexpressing degradation-resistant GSPT1 mutant; details: FIG. 7B-C
Protocol: Complete information for all plasmids is included in Table 1 below. […] Lentiviruses for pCDH-GSPT1 or pCDH-GSPT1^G575N were generated in 293T cells using psPAX2 and pMD2.G packaging vectors. The packaging vectors were gifts from Dr. Didier Trono (Addgene plasmid #12259 and 12260).
as §1

COc1ccc(OC)c(-n2nnc(C(=O)Nc3cc(Oc4cccc5c4C(=O)N(C4CCC(=O)NC4=O)C5=O)cc(C(C)(C)C)c3)c2C)c1 (stereo not drawn) [Compound M4, N-(3-(tert-butyl)-5-((2-(2,6-dioxopiperidin-3-yl)-1,3-dioxoisoindolin-4-yl)oxy)phenyl)-1-(2,5-dimethoxyphenyl)-5-methyl-1H-1,2,3-triazole-4-carboxamide]
proteins changed at whole-proteome scale (selectivity) [1]: five down-regulated proteins (GSPT1, GSPT2, ZFP91, CYP1A1, and BRIP1) and one upregulated protein (FOS) | CC50 at 72 h [2]: 440 ± 80 nM | fold difference in CC50 values (CC-885 vs SJPYT-195) [3]: 133 fold | reduction of PXR RNA (PXR RNA; 5 μM, 12 h): negligible reduction | PXR RNA level (PXR RNA; time-course, FIG. 5C): drastically reduced PXR RNA level | cytotoxicity in cells overexpressing GSPT1^G575N [4]: partially resistant
